Target: T1, hGIP-R (Homo sapiens, UniProt P48546)
T1 construct: expressed in transfected cells; host or cells: HEK-293 clonal cell lines
T1 sequence (P48546 22-466): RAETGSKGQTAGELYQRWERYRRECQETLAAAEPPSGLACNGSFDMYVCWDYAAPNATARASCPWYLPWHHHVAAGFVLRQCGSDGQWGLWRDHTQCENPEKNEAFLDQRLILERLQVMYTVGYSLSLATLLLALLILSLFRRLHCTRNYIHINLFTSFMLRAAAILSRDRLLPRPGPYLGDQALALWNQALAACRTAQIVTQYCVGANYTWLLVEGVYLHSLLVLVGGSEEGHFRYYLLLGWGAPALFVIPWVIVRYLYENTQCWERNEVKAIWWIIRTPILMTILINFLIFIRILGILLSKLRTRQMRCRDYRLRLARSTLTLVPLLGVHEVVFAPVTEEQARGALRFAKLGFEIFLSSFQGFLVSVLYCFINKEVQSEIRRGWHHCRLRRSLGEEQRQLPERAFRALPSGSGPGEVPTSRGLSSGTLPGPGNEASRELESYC
Test: Functional hGIP-R Assay (cAMP formation, HTRF)
Format: cell-based
Conditions: for Emax: cAMP efficacy, percent of maximal response to GIP(1-42)OH, 37° C., 0.1% bovine casein, arithmetic mean ± SEM; for EC50: cAMP potency, HEK-293 cells expressing hGIP-R, incubated at 37° C. in the presence of 0.1% bovine casein, geometric mean, read-out: Human GIP-R EC50, nM (SEM, n)
Summary of the method: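 Relative EC50 and Emax came from four-parameter logistic fits of cAMP as a percent of the human GIP (1-42) OH maximal response. The cAMP was measured by competitive HTRF after 30 min, 37 °C compound exposure of hGIP-R HEK-293 clones in IBMX (250 μM)-containing medium.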

SMILES	Emax [%]	EC50 [nM]
Cc1nc(-c2cnc3nc(C4CC4)cn3c2)ccc1[C@H]1C[C@@]12CCN([C@H](Cc1cnn(C(F)F)c1)C(=O)NC(C)(C)Cn1nc(C(F)(F)F)cc1-c1cnc(C(C)(C)O)nc1)C2=O [Example 158, (R)-2-((1R,3R)-1-(6-(2-cyclopropylimidazo[1,2-a]pyrimidin-6-yl)-2-methylpyridin-3-yl)-4-oxo-5-azaspiro[2.4]heptan-5-yl)-3-(1-(difluoromethyl)-1H-pyrazol-4-yl)-N-(1-(5-(2-(2-hydroxypropan-2-yl)pyrimidin-5-yl)-3-(trifluoromethyl)-1H-pyrazol-1-yl)-2-methylpropan-2-yl)propanamide]	102 ± 1.41	1.23
COc1ncc(-c2ccc([C@H]3C[C@@]34CCN([C@H](Cc3cnn(C(F)F)c3)C(=O)NC(C)(C)Cn3nc(C(F)(F)F)cc3-c3ccn(C5CC5)c(=O)c3)C4=O)c(C)n2)cc1F [Example 174, (R)-N-(1-(5-(1-cyclopropyl-2-oxo-1,2-dihydropyridin-4-yl)-3-(trifluoromethyl)-1H-pyrazol-1-yl)-2-methylpropan-2-yl)-3-(1-(difluoromethyl)-1H-pyrazol-4-yl)-2-((1R,3R)-1-(5′-fluoro-6′-methoxy-6-methyl-[2,3′-bipyridin]-5-yl)-4-oxo-5-azaspiro[2.4]heptan-5-yl)propanamide]	13.4 ± 1.64	6.09
Cn1cc(C[C@@H](NC(=O)[C@H]2C[C@@H]2c2ccc(-c3cnc4nn(C)cc4c3)cc2)C(=O)NC(C)(C)Cn2nc(C(F)(F)F)cc2-c2ncsn2)cn1 [Example 17, (1S,2S)-N-((R)-1-((1-(5-(1,2,4-Thiadiazol-3-yl)-3-(trifluoromethyl)-1H-pyrazol-1-yl)-2-methylpropan-2-yl)amino)-3-(1-methyl-1H-pyrazol-4-yl)-1-oxopropan-2-yl)-2-(4-(2-methyl-2H-pyrazolo [3,4-b]pyridin-5-yl)phenyl) cyclopropane-1-carboxamide]	129 ± 11.4	83.5
[2H]C([2H])([2H])n1cc(C[C@H](C(=O)NC(C)(C)Cn2nc(C(F)(F)F)cc2-c2cnc(C(C)(C)O)nc2)N2CC[C@@]3(C[C@@H]3c3ccc(-c4cnc5nc(C6CC6)cn5c4)nc3C)C2=O)cn1 [Example 186, (R)-2-((1R,3R)-1-(6-(2-cyclopropylimidazo[1,2-a]pyrimidin-6-yl)-2-methylpyridin-3-yl)-4-oxo-5-azaspiro[2.4]heptan-5-yl)-N-(1-(5-(2-(2-hydroxypropan-2-yl)pyrimidin-5-yl)-3-(trifluoromethyl)-1H-pyrazol-1-yl)-2-methylpropan-2-yl)-3-(1-(methyl-d3)-1H-pyrazol-4-yl)propanamide]	104 ± 0.548	1.75
Cn1cc(C[C@@H](NC(=O)[C@H]2C[C@@H]2c2ccc(-c3cnc4nn(C)cc4c3)cc2)C(=O)NC(C)(C)Cn2nc(C(F)(F)F)cc2-c2ccn(C)c(=O)c2)cn1 [Example 52, (1S,2S)-N—((R)-1-((2-Methyl-1-(5-(1-methyl-2-oxo-1,2-dihydropyridin-4-yl)-3-(trifluoromethyl)-1H-pyrazol-1-yl)propan-2-yl)amino)-3-(1-methyl-1H-pyrazol-4-yl)-1-oxopropan-2-yl)-2-(4-(2-methyl-2H-pyrazolo[3,4-b]pyridin-5-yl)phenyl)cyclopropane-1-carboxamide]	98.4 ± 3.96	53
CN(C(=O)[C@H]1C[C@@H]1c1ccc(-c2cnc3nn(C)cc3c2)cc1)[C@H](Cc1cnn(C)c1)C(=O)NC(C)(C)Cn1nc(C(F)(F)F)cc1-c1ccc[nH]c1=O [Example 32, (1S,2S)-N-Methyl-N-((R)-1-((2-methyl-1-(5-(2-oxo-1,2-dihydropyridin-3-yl)-3-(trifluoromethyl)-1H-pyrazol-1-yl)propan-2-yl)amino)-3-(1-methyl-1H-pyrazol-4-yl)-1-oxopropan-2-yl)-2-(4-(2-methyl-2H-pyrazolo[3,4-b]pyridin-5-yl)phenyl) cyclopropane-1-carboxamide]	119	93.5
Cn1cc2cc(-c3ccc([C@H]4C[C@@]45CCN([C@H](Cc4cnn(C(F)F)c4)C(=O)NC(C)(C)Cn4nc(C(F)(F)F)cc4-c4cccn(CC#N)c4=O)C5=O)cc3)cnc2n1 [Example 123, (R)-N-(1-(5-(1-(Cyanomethyl)-2-oxo-1,2-dihydropyridin-3-yl)-3-(trifluoromethyl)-1H-pyrazol-1-yl)-2-methylpropan-2-yl)-3-(1-(difluoromethyl)-1H-pyrazol-4-yl)-2-((1R,3R)-1-(4-(2-methyl-2H-pyrazolo[3,4-b]pyridin-5-yl)phenyl)-4-oxo-5-azaspiro[2.4]heptan-5-yl)propanamide]	95.7 ± 6.9	18.7
Cn1cc(C[C@H](C(=O)NC(C)(C)Cn2nc(C(F)(F)F)cc2-c2ccc(=O)n(C)c2)N2CC[C@@]3(C[C@@H]3c3ccc(-c4cnc5nn(C)cc5c4)cc3)C2=O)cn1 [Example 98, (R)—N-(2-Methyl-1-(5-(1-methyl-6-oxo-1,6-dihydropyridin-3-yl)-3-(trifluoromethyl)-1H-pyrazol-1-yl)propan-2-yl)-3-(1-methyl-1H-pyrazol-4-yl)-2-((1R,3R)-1-(4-(2-methyl-2H-pyrazolo[3,4-b]pyridin-5-yl)phenyl)-4-oxo-5-azaspiro[2.4]heptan-5-yl)propanamide]	110 ± 3.22	35.5
[2H]C([2H])([2H])n1cc(C[C@H](C(=O)NC(C)(C)Cn2nc(C(F)(F)F)cc2-c2ccc(C(C)(C)O)nc2)N2CC[C@@]3(C[C@@H]3c3ccc(-c4cnc5nn(CC)cc5c4)nc3C)C2=O)cn1 [Example 189, (R)-2-((1R,3R)-1-(6-(2-Ethyl-2H-pyrazolo[3,4-b]pyridin-5-yl)-2-methylpyridin-3-yl)-4-oxo-5-azaspiro[2.4]heptan-5-yl)-N-(1-(5-(6-(2-hydroxypropan-2-yl)pyridin-3-yl)-3-(trifluoromethyl)-1H-pyrazol-1-yl)-2-methylpropan-2-yl)-3-(1-(methyl-d3)-1H-pyrazol-4-yl)propanamide]	61 ± 0.6	1.3
Cc1nc(C2CC2)nc(O)c1-c1cc(C(F)(F)F)nn1CC(C)(C)NC(=O)[C@@H](Cc1cnn(C(F)F)c1)N1CC[C@@]2(C[C@@H]2c2ccc(-c3cnc4nn(C)cc4c3)cc2)C1=O [Example 122, (R)-N-(1-(5-(2-Cyclopropyl-4-hydroxy-6-methylpyrimidin-5-yl)-3-(trifluoromethyl)-1H-pyrazol-1-yl)-2-methylpropan-2-yl)-3-(1-(difluoromethyl)-1H-pyrazol-4-yl)-2-((1R,3R)-1-(4-(2-methyl-2H-pyrazolo[3,4-b]pyridin-5-yl)phenyl)-4-oxo-5-azaspiro[2.4]heptan-5-yl)propanamide]	90.8 ± 7.25	103
Cn1cc(C[C@@H](NC(=O)[C@H]2C[C@@H]2c2ccc(-c3cnc4nn(C)cc4c3)cc2)C(=O)NC(C)(C)Cn2nc(C(F)(F)F)cc2-c2cc[nH]n2)cn1 [Example 42]	114 ± 10.2	52.7
CC(C)(Cn1cc(C(F)(F)F)cn1)NC(=O)[C@@H](Cc1cnc2ncccn12)NC(=O)[C@H]1C[C@@H]1c1ccc(-c2cnc3nn(C4CCC4)cc3c2)cc1 [Example 84, (1S,2S)-2-(4-(2-Cyclobutyl-2H-pyrazolo[3,4-b]pyridin-5-yl)phenyl)-N-((R)-3-(imidazo[1,2-a]pyrimidin-3-yl)-1-((2-methyl-1-(4-(trifluoromethyl)-1H-pyrazol-1-yl)propan-2-yl)amino)-1-oxopropan-2-yl)cyclopropane-1-carboxamide]	89.7	37.8
Cc1cn2cc(-c3ccc([C@H]4C[C@@]45CCN([C@H](Cc4cnn(C(F)F)c4)C(=O)NC(C)(C)Cn4nc(C(F)(F)F)cc4-c4cc(F)c(=O)n(C)c4)C5=O)c(C)c3)cnc2n1 [Example 144, (R)-3-(1-(Difluoromethyl)-1H-pyrazol-4-yl)-N-(1-(5-(5-fluoro-1-methyl-6-oxo-1,6-dihydropyridin-3-yl)-3-(trifluoromethyl)-1H-pyrazol-1-yl)-2-methylpropan-2-yl)-2-((1R,3R)-1-(2-methyl-4-(2-methylimidazo[1,2-a]pyrimidin-6-yl)phenyl)-4-oxo-5-azaspiro[2.4]heptan-5-yl)propanamide]	63.3 ± 2.24	0.755
CC(C)(Cc1ccc(F)cc1)NC(=O)[C@@H](Cc1cnc2ncccn12)NC(=O)[C@H]1C[C@@H]1c1ccc(-c2cnc3nc(C(F)(F)F)cn3c2)cc1 [Example 86, (1S,2S)-N-((R)-1-((1-(4-Fuorophenyl)-2-methylpropan-2-yl)amino)-3-(imidazo[1,2-a]pyrimidin-3-yl)-1-oxopropan-2-yl)-2-(4-(2-(trifluoromethyl)imidazo[1,2-a]pyrimidin-6-yl)phenyl)cyclopropane-1-carboxamide]	71.1 ± 2.32	10.2
CC(=O)N1CCN(c2ccc(C3CC34CCN([C@H](Cc3cnn(C(F)F)c3)C(=O)NC(C)(C)Cn3nc(C(F)(F)F)cc3-c3cnc(C)nc3)C4=O)c(C(F)(F)F)n2)CC1 (single isomer, unassigned; isomer 1) [Example 116]	23.1 ± 0.52	127

From patent US20260108546A1 (ELI LILLY AND COMPANY, priority 2024, published 2026)
